Article PMC6269682, “Apocynin: Chemical and Biophysical Properties of a NADPH Oxidase Inhibitor” (Molecules, 2013)
pKd: −log10 of the molar value.

Experiments:
[1] = molecular target: T1, human serum albumin (HSA) (Homo sapiens, UniProt P02768); assay: probe fluorescence enhancement and blue shift on binding; displaced by apocynin
T1 construct: gene ALB

[2] = molecular target: T1, human serum albumin (HSA); assay: intrinsic fluorescence quenching (Stern-Volmer, apparent Ka), with displacement of fluorescent site probes; type: binding

T1 sequence (P02768 25-609): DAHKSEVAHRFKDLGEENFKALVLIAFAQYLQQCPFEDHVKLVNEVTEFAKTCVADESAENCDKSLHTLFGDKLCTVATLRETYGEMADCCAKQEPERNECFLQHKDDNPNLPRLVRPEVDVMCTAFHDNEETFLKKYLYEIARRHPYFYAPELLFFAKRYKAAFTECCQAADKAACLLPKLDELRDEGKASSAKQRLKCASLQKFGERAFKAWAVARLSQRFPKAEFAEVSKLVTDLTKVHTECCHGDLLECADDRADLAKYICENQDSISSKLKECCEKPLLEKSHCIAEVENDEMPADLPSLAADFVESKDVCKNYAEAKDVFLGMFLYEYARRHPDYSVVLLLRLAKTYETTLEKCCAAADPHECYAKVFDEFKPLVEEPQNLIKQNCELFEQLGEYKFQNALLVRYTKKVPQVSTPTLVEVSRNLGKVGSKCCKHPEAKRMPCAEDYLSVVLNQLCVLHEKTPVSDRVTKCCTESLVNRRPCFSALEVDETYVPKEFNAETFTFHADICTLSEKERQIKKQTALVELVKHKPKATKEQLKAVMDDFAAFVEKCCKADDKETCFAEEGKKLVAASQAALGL

SMILES	probe fluorescence enhancement and blue shift on binding; displaced by apocynin [1]	pKd [2]
CN(C)c1cccc2c(S(N)(=O)=O)cccc12 [DNSA, 5-(dimethylamino)-1-naphthalenesulfonamide]	binding of these probes to albumin provoked a significant increase in their fluorescence quantum yield	–
CN(C)c1cccc2c(S(=O)(=O)NCC(=O)O)cccc12 [DG, dansylglycine]	apocynin was able to displace both fluorescent probes, but a greater effect was observed using DNSA	–
COc1cc(C(C)=O)ccc1O [APO, 4-hydroxy-3-methoxyacetophenone]	–	4.34
